Data as given in patent US10294202B2, “Pyrrolidinones as herbicides” (FMC Corporation, priority 2013, dated 2019).

Columns and labels:
Assay in all cases: Test A pre-/postemergence herbicide test
[1] = tested on: wheat; type: in vivo, Triticum aestivum
Source text: (§1) Seeds of plant species selected from bamyardgrass (Echinochloa crus-galli), kochia (Kochia scoparia), ragweed (common ragweed, Ambrosia elatior), ryegrass, Italian (Italian ryegrass, Lolium multiflorum), crabgrass, large (large crabgrass Digitaria sanguinalis), giant foxtail (Setaria faberii), morningglory (Ipomoea spp.), pigweed (Amaranthus retroflexus), velvetleaf (Abutilon theophrasti), wheat (Triticum aestivum), and corn (Zea mays) were planted into a blend of loam soil and sand and treated preemergence with a directed soil spray using test chemicals formulated in a non-phytotoxic solvent mixture which included a surfactant. At the same time, plants selected from these crop and weed species and also blackgrass (Alopecurus myosuroides), and galium (catchweed bedstraw, Galium aparine) were planted in pots containing the same blend of loam soil and sand and treated with postemergence applications of test chemicals formulated in the same manner. Plants ranged in height from 2 to 10 cm and were in the one- to two-leaf stage for the postemergence treatment. Treated plants and untreated controls were maintained in a greenhouse for approximately 10 days, after which time all treated plants were compared to untreated controls and visually evaluated for injury. Plant response ratings, summarized in Table A, are based on a 0 to 100 scale where 0 is no effect and 100 is complete control. A dash (-) response means no test result.

[2] = tested on: velvetleaf; type: in vivo, Abutilon theophrasti
Source text: as §1

[3] = tested on: morningglory; type: in vivo, Ipomoea spp.
Source text: as §1

[4] = tested on: crabgrass, large; type: in vivo, Digitaria sanguinalis
Source text: as §1

[5] = tested on: barnyardgrass; type: in vivo, Echinochloa crus-galli
Source text: as §1

[6] = tested on: giant foxtail; type: in vivo, Setaria faberii
Source text: as §1

[7] = tested on: pigweed; type: in vivo, Amaranthus retroflexus
Source text: as §1

[8] = tested on: corn; type: in vivo, Zea mays
Source text: as §1

[9] = Postemergence, 1000 g ai/ha, 0 to 100 scale (0 no effect, 100 complete control)
[10] = preemergence, 1000 g ai/ha, 0 to 100 scale
[11] = preemergence, 1000 g ai/ha, 0 to 100 scale (0 no effect, 100 complete control)
[12] = Preemergence, 1000 g ai/ha, visual rating on 0 to 100 scale (0 no effect, 100 complete control), approx. 10 days
[13] = Postemergence, 125 g ai/ha, 0 to 100 scale, 0 no effect, 100 complete control
[14] = Postemergence, 500 g ai/ha, 0 to 100 scale (0 no effect, 100 complete control)
[15] = Preemergence, 125 g ai/ha, visual rating on 0 to 100 scale (0 no effect, 100 complete control)
[16] = preemergence, 500 g ai/ha, 0 to 100 scale
[17] = preemergence, 500 g ai/ha, 0 to 100 scale (0 no effect, 100 complete control)

## Cn1ccc(C2CNC(=O)C2C(=O)Nc2cccc(F)c2F)n1 (racemic) [Compound 192]
[1]; [9]
  Plant response rating, Wheat: 0
[1]; [10]
  Plant response rating, Wheat: 0
[2]; [9]
  Plant response rating, Velvetleaf: 0
[2]; [10]
  Plant response rating, Velvetleaf: 0
[3]; [9]
  Plant response rating, Morningglory: 0
[3]; [10]
  Plant response rating, Morningglory: 0
[4]; [9]
  Plant response rating, Crabgrass, Large: 0
[4]; [10]
  Plant response rating, Crabgrass, Large: 0
[5]; [9]
  Plant response rating, Barnyardgrass: 0
[5]; [11]
  Plant response rating, Barnyardgrass: 0
[6]; [9]
  Plant response rating, Foxtail, Giant: 0
[6]; [10]
  Plant response rating, Foxtail, Giant: 0
[7]; [9]
  Plant response rating, Pigweed: 0
[7]; [10]
  Plant response rating, Pigweed: 0
[8]; [9]
  Plant response rating, Corn: 0
[8]; [10]
  Plant response rating, Corn: 0

## Cn1cc(C2CNC(=O)C2C(=O)Nc2cccc(F)c2F)cn1 (racemic) [Compound 253]
[1]; [9]
  Plant response rating, Wheat: 0
[1]; [10]
  Plant response rating, Wheat: 0
[2]; [9]
  Plant response rating, Velvetleaf: 0
[2]; [10]
  Plant response rating, Velvetleaf: 0
[3]; [9]
  Plant response rating, Morningglory: 10
[3]; [10]
  Plant response rating, Morningglory: 0
[4]; [9]
  Plant response rating, Crabgrass, Large: 20
[4]; [10]
  Plant response rating, Crabgrass, Large: 0
[5]; [9]
  Plant response rating, Barnyardgrass: 0
[5]; [11]
  Plant response rating, Barnyardgrass: 0
[6]; [9]
  Plant response rating, Foxtail, Giant: 20
[6]; [10]
  Plant response rating, Foxtail, Giant: 0
[7]; [9]
  Plant response rating, Pigweed: 0
[7]; [10]
  Plant response rating, Pigweed: 0
[8]; [9]
  Plant response rating, Corn: 0
[8]; [10]
  Plant response rating, Corn: 0

## O=C1NCC(c2ccc(F)c(F)c2)C1C(=O)N(O)c1ccccc1 (stereo not shown) [Compound 71]
[1]; [9]
  Plant response rating, Wheat: 0
[1]; [12]
  Plant response rating, Wheat: 0
[2]; [9]
  Plant response rating, Velvetleaf: 0
[2]; [12]
  Plant response rating, Velvetleaf: 0
[4]; [9]
  Plant response rating, Crabgrass, Large: 80
[4]; [12]
  Plant response rating, Crabgrass, Large: 80
[5]; [9]
  Plant response rating, Barnyardgrass: 50
[5]; [12]
  Plant response rating, Barnyardgrass: 50
[6]; [9]
  Plant response rating, Foxtail, Giant: 60
[6]; [12]
  Plant response rating, Foxtail, Giant: 60
[7]; [9]
  Plant response rating, Pigweed: 0
[7]; [12]
  Plant response rating, Pigweed: 0
[8]; [9]
  Plant response rating, Corn: 0
[8]; [12]
  Plant response rating, Corn: 0

## Cn1ccnc1C1CNC(=O)C1C(=O)Nc1ccccc1F (racemic) [Compound 255]
[1]; [9]
  Plant response rating, Wheat: 0
[1]; [10]
  Plant response rating, Wheat: 0
[2]; [9]
  Plant response rating, Velvetleaf: 0
[2]; [10]
  Plant response rating, Velvetleaf: 0
[3]; [9]
  Plant response rating, Morningglory: 0
[3]; [10]
  Plant response rating, Morningglory: 0
[4]; [9]
  Plant response rating, Crabgrass, Large: 0
[4]; [10]
  Plant response rating, Crabgrass, Large: 90
[5]; [9]
  Plant response rating, Barnyardgrass: 0
[5]; [11]
  Plant response rating, Barnyardgrass: 60
[6]; [9]
  Plant response rating, Foxtail, Giant: 0
[6]; [10]
  Plant response rating, Foxtail, Giant: 70
[7]; [9]
  Plant response rating, Pigweed: 0
[7]; [10]
  Plant response rating, Pigweed: 0
[8]; [9]
  Plant response rating, Corn: 0
[8]; [10]
  Plant response rating, Corn: 0

## Cn1ccc(C2CNC(=O)C2C(=O)Nc2ccccc2C(F)(F)F)n1 (racemic) [Compound 191]
[1]; [9]
  Plant response rating, Wheat: 0
[1]; [10]
  Plant response rating, Wheat: 0
[2]; [9]
  Plant response rating, Velvetleaf: 0
[2]; [10]
  Plant response rating, Velvetleaf: 0
[3]; [9]
  Plant response rating, Morningglory: 0
[3]; [10]
  Plant response rating, Morningglory: 0
[4]; [9]
  Plant response rating, Crabgrass, Large: 0
[4]; [10]
  Plant response rating, Crabgrass, Large: 0
[5]; [9]
  Plant response rating, Barnyardgrass: 0
[5]; [11]
  Plant response rating, Barnyardgrass: 0
[6]; [9]
  Plant response rating, Foxtail, Giant: 0
[6]; [10]
  Plant response rating, Foxtail, Giant: 0
[7]; [9]
  Plant response rating, Pigweed: 0
[7]; [10]
  Plant response rating, Pigweed: 0
[8]; [9]
  Plant response rating, Corn: 0
[8]; [10]
  Plant response rating, Corn: 0

## Cn1cc(C2CNC(=O)C2C(=O)Nc2ccccc2F)cn1 (racemic) [Compound 254]
[1]; [9]
  Plant response rating, Wheat: 0
[1]; [10]
  Plant response rating, Wheat: 0
[2]; [9]
  Plant response rating, Velvetleaf: 0
[2]; [10]
  Plant response rating, Velvetleaf: 0
[3]; [9]
  Plant response rating, Morningglory: 0
[3]; [10]
  Plant response rating, Morningglory: 0
[4]; [9]
  Plant response rating, Crabgrass, Large: 0
[4]; [10]
  Plant response rating, Crabgrass, Large: 70
[5]; [9]
  Plant response rating, Barnyardgrass: 0
[5]; [11]
  Plant response rating, Barnyardgrass: 0
[6]; [9]
  Plant response rating, Foxtail, Giant: 0
[6]; [10]
  Plant response rating, Foxtail, Giant: 40
[7]; [9]
  Plant response rating, Pigweed: 0
[7]; [10]
  Plant response rating, Pigweed: 0
[8]; [9]
  Plant response rating, Corn: 0
[8]; [10]
  Plant response rating, Corn: 0

## O=C1NCC(c2ccc(F)c(F)c2)C1C(=O)Nc1cccc(=O)[nH]1 (racemic) [Compound 96]
[1]; [9]
  Plant response rating, Wheat: 0
[1]; [12]
  Plant response rating, Wheat: 0
[2]; [9]
  Plant response rating, Velvetleaf: 0
[2]; [12]
  Plant response rating, Velvetleaf: 0
[3]; [9]
  Plant response rating, Morningglory: 0
[3]; [12]
  Plant response rating, Morningglory: 0
[4]; [9]
  Plant response rating, Crabgrass, Large: 0
[4]; [12]
  Plant response rating, Crabgrass, Large: 0
[5]; [9]
  Plant response rating, Barnyardgrass: 0
[5]; [12]
  Plant response rating, Barnyardgrass: 0
[6]; [9]
  Plant response rating, Foxtail, Giant: 0
[6]; [12]
  Plant response rating, Foxtail, Giant: 0
[7]; [9]
  Plant response rating, Pigweed: 0
[7]; [12]
  Plant response rating, Pigweed: 0
[8]; [9]
  Plant response rating, Corn: 0
[8]; [12]
  Plant response rating, Corn: 0

## O=C1NCC(c2ccccc2)C1(Br)C(=O)Nc1ccc(Br)cc1F (stereo not shown) [Compound 94]
[1]; [13]
  Plant response rating, Wheat: 0
[1]; [14]
  Plant response rating, Wheat: 0
[1]; [15]
  Wheat plant response rating: 0
[1]; [16]
  Plant response rating, Wheat: 0
[2]; [13]
  Plant response rating, Velvetleaf: 0
[2]; [14]
  Plant response rating, Velvetleaf: 0
[2]; [15]
  Velvetleaf plant response rating: 0
[3]; [13]
  Plant response rating, Morningglory: 0
[3]; [14]
  Plant response rating, Morningglory: 0
[3]; [15]
  Morningglory plant response rating: 0
[3]; [16]
  Plant response rating, Morningglory: 0
[4]; [13]
  Plant response rating, Crabgrass, Large: 0
[4]; [14]
  Plant response rating, Crabgrass, Large: 0
[4]; [15]
  Crabgrass, Large plant response rating: 0
[4]; [16]
  Plant response rating, Crabgrass, Large: 50
[5]; [13]
  Plant response rating, Barnyardgrass: 0
[5]; [14]
  Plant response rating, Barnyardgrass: 0
[5]; [15]
  Barnyardgrass plant response rating: 0
[5]; [17]
  Plant response rating, Barnyardgrass: 0
[6]; [13]
  Plant response rating, Foxtail, Giant: 0
[6]; [14]
  Plant response rating, Foxtail, Giant: 0
[6]; [15]
  Foxtail, Giant plant response rating: 0
[6]; [16]
  Plant response rating, Foxtail, Giant: 0
[7]; [13]
  Plant response rating, Pigweed: 0
[7]; [14]
  Plant response rating, Pigweed: 0
[7]; [15]
  Pigweed plant response rating: 0
[8]; [13]
  Plant response rating, Corn: 0
[8]; [14]
  Plant response rating, Corn: 0
[8]; [15]
  Corn plant response rating: 0
[8]; [16]
  Plant response rating, Corn: 0

## N#Cc1ccccc1NC(=O)C1C(=O)NCC1c1ccccc1 (racemic) [Compound 86]
[1]; [13]
  Plant response rating, Wheat: 0
[1]; [14]
  Plant response rating, Wheat: 0
[1]; [15]
  Wheat plant response rating: 0
[1]; [16]
  Plant response rating, Wheat: 0
[2]; [13]
  Plant response rating, Velvetleaf: 0
[2]; [14]
  Plant response rating, Velvetleaf: 0
[2]; [15]
  Velvetleaf plant response rating: 0
[2]; [16]
  Plant response rating, Velvetleaf: 0
[3]; [13]
  Plant response rating, Morningglory: 0
[3]; [14]
  Plant response rating, Morningglory: 0
[3]; [15]
  Morningglory plant response rating: 0
[3]; [16]
  Plant response rating, Morningglory: 0
[4]; [13]
  Plant response rating, Crabgrass, Large: 0
[4]; [14]
  Plant response rating, Crabgrass, Large: 60
[4]; [15]
  Crabgrass, Large plant response rating: 60
[4]; [16]
  Plant response rating, Crabgrass, Large: 80
[5]; [13]
  Plant response rating, Barnyardgrass: 0
[5]; [14]
  Plant response rating, Barnyardgrass: 20
[5]; [15]
  Barnyardgrass plant response rating: 0
[5]; [17]
  Plant response rating, Barnyardgrass: 40
[6]; [13]
  Plant response rating, Foxtail, Giant: 0
[6]; [14]
  Plant response rating, Foxtail, Giant: 10
[6]; [15]
  Foxtail, Giant plant response rating: 20
[6]; [16]
  Plant response rating, Foxtail, Giant: 60
[7]; [13]
  Plant response rating, Pigweed: 0
[7]; [14]
  Plant response rating, Pigweed: 0
[7]; [15]
  Pigweed plant response rating: 0
[7]; [16]
  Plant response rating, Pigweed: 0
[8]; [13]
  Plant response rating, Corn: 0
[8]; [14]
  Plant response rating, Corn: 0
[8]; [15]
  Corn plant response rating: 0
[8]; [16]
  Plant response rating, Corn: 20
